According to BindingDB's records for doi:10.1016/s0960-894x(98)00709-4 (Dupont Pharmaceuticals, 1999):

Assays:
[1] = Inhibition of platelet aggregation in citreated human platelet rich plasma (PRP)
[2] = Inhibition of platelet aggregation in heparin treated human platelet rich plasma (PRP)

| SMILES | IC50 [1] | IC50 [2] |
| --- | --- | --- |
| C=CCOP(=O)(NC(CNC(=O)CC1CC(c2ccc(C(=N)N)cc2)=NO1)C(=O)O)OCC=C (centres undefined) [2-(Bis-allyloxy-phosphorylamino)-3-{2-[3-(4-carbamimidoyl-phenyl)-4,5-dihydro-isoxazol-5-yl]-acetylamino}-propionic acid] | 122 nM | 224 nM |
| N=C(N)c1ccc(C2=NOC(CC(=O)NCC(NP(=O)(O)O)C(=O)O)C2)cc1 (centres undefined) [3-{2-[3-(4-Carbamimidoyl-phenyl)-4,5-dihydro-isoxazol-5-yl]-acetylamino}-2-phosphonoamino-propionic acid] | 260 nM | 376 nM |
| CC(C)OP(=O)(NC(CNC(=O)CC1CC(c2ccc(C(=N)N)cc2)=NO1)C(=O)O)OC(C)C (centres undefined) [3-{2-[3-(4-Carbamimidoyl-phenyl)-4,5-dihydro-isoxazol-5-yl]-acetylamino}-2-(diisopropoxy-phosphorylamino)-propionic acid] | 103 nM | 210 nM |
| [H]/N=C(/N)c1ccc(C2=NO[C@@H](CC(=O)NC[C@H](NC(=O)OCCCC)C(=O)O)C2)cc1 | – | 66 nM |
| N=C(N)c1ccc(C2=NOC(CC(=O)NCCC(=O)O)C2)cc1 (centres undefined) | – | 560 nM |
| COP(=O)(NC(CNC(=O)CC1CC(c2ccc(C(=N)N)cc2)=NO1)C(=O)O)OC (centres undefined) [3-{2-[3-(4-Carbamimidoyl-phenyl)-4,5-dihydro-isoxazol-5-yl]-acetylamino}-2-(dimethoxy-phosphorylamino)-propionic acid] | 105 nM | 197 nM |
| CCOP(=O)(NC(CNC(=O)CC1CC(c2ccc(C(=N)N)cc2)=NO1)C(=O)O)OCC (centres undefined) [3-{2-[3-(4-Carbamimidoyl-phenyl)-4,5-dihydro-isoxazol-5-yl]-acetylamino}-2-(diethoxy-phosphorylamino)-propionic acid] | 117 nM | 240 nM |
| CCCCOP(=O)(NC(CNC(=O)CC1CC(c2ccc(C(=N)N)cc2)=NO1)C(=O)O)OCCCC (centres undefined) [3-{2-[3-(4-Carbamimidoyl-phenyl)-4,5-dihydro-isoxazol-5-yl]-acetylamino}-2-(dibutoxy-phosphorylamino)-propionic acid] | 114 nM | 221 nM |
